Experimental data reported in US20100016313A1, “INTESTINAL ALKALINE PHOSPHATASE MODULATORS AND USES THEREOF” (Burnham Institute for Medical Research, priority 2008, published 2010).

Target: T1, human IAP (Homo sapiens, UniProt P09923)
T1 construct: made in house; host or cells: COS-1 cells, transient expression from pCMV-Script; conditioned serum-free medium used as enzyme stock
T1 sequence (P09923 20-503 limits assumed): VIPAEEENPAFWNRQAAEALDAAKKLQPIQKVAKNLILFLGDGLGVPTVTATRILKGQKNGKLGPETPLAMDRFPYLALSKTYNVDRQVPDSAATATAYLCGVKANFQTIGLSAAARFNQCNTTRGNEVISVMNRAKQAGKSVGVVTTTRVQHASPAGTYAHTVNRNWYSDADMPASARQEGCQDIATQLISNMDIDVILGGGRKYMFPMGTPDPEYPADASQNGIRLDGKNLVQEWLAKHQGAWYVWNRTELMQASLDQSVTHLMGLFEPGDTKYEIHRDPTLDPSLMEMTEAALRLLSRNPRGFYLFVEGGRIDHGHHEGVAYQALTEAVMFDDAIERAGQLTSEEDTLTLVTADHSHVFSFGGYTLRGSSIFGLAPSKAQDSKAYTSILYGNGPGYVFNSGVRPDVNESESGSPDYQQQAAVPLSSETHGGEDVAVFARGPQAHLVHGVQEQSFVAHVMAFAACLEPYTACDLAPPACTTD
Assay: IAP assay using CDP-Star (chemiluminescent, dose response)
Assay type: biochemical
Details: IAP modulators, Tables A-H, positive = inhibitor; for n (Hill coefficient): negative = activator; for IC50: negative Hill coefficient = activator
Source text: An expression vector pCMV-Script containing cDNA for human IAP, TNAP, PLAP, GCAP, mouse TNAP, dIAP, EAP or gIAP in secreted form (FLAG-tagged) is transfected into COS-1 cells for transient expression using a standard electroporation method. The GPI anchoring site is replaced by a FLAG sequence to make the proteins secreted into the media as well as to test their kinetics in a form immobilized by anti-FLAG antibody (Narisawa, et al, 2007). Medium is changed to serum free medium Opti-MEM (Invitrogen) 24 h later, and media containing secreted proteins was collected 66 hr after electroporation. Conditioned medium filtered by a 2 μm cellulose acetate membrane is supplemented with 0.1% BSA, aliquotted and stored at −80° C.
Human IAP is produced on a large scale to be used in the primary high throughput screening. For a maximum of 200,000 wells including a blank and negative control in each plate, approximately 1600 ml of the recombinant human IAP working solution (8 μl/well×200,000) is used. The working solution is a 1:80 dilution of the stock solution that has AP activity showing ΔOD405 (velocity) ˜300 in 5 min pNPP calorimetric assay. Therefore a minimum of 20 ml of the stock solution (1600÷80) is needed. An enzyme stock is prepared from ten 15 cm φ plates of COS-1 cells using 100 μg plasmid DNA [ten plates×(10 μg DNA/1×10^7 cells per 15 cm φ plate)].
Compound aliquots (4 μL at […] in 10% DMSO) are added to 8 μL of human IAP working solution of a the human IAP stock solution diluted 1:80 in assay buffer (250 mM DEA, pH 9.8, −2.5 mM MgCl2, −0.05 μM ZnCl2). The solution of substrate CDP-Star, disodium 2-chloro-5-(4-methoxyspiro{1,2-dioxetane-3,2′(5′-chloro)-tricyclo[3.3.1.1]3,7 decan}-4-yl)-1-phenyl phosphate (New England Biolabs), (8 μL of 125 μM in water) is added to each well. […] Dispensing of human IAP working solution and CDP-Star is processed using a WellMate bulk dispenser (Matrix). Plates (white 384-well small volume Greiner 784075) are incubated at room temperature for 30 min, and the luminescence signal is measured using a PerkinElmer EnVision multi-mode plate reader. L-Phenylalanine (1 mM final concentration) and 2% DMSO is utilized as an inhibition control and blank, respectively. Data analysis is processed using CBIS software (ChemInnovations, Inc).
The compound is diluted ([…] to 0.03 mM) and incubated with the human IAP enzyme for 30 min prior to addition of substrate. At the same time, human TNAP, human PLAP, human GCAP, mouse TNAP, mouse dIAP, mouse EAP and mouse gIAP is tested to determine enzyme specificity.

SMILES | n (Hill coefficient) | IC50
O=C(O)c1cc(-c2ccccc2Cl)[nH]n1 [Compound A1, 5-(2-chlorophenyl)-1H-pyrazole-3-carboxylic acid] | 0.9625 | –
O=C(O)c1cc(-c2ccc(Cl)cc2)n[nH]1 [Compound A2, 5-(4-chlorophenyl)-1H-pyrazole-3-carboxylic acid] | – | > 100 µM
COc1ccc(-c2cc(C(=O)O)n[nH]2)cc1 [Compound A3, 5-(4-methoxyphenyl)-1H-pyrazole-3-carboxylic acid] | – | > 100 µM
Cc1ccc(-c2cc(C(=O)O)[nH]n2)cc1 [Compound A4, 5-(4-methylphenyl)-1H-pyrazole-3-carboxylic acid] | – | > 100 µM
Nc1ccc(-c2cc(C(=O)O)n[nH]2)cc1 [Compound A5, 5-(4-aminophenyl)-1H-pyrazole-3-carboxylic acid] | – | > 100 µM
CCOC(=O)c1cc(-c2cccc(C(F)(F)F)c2)[nH]n1 [Compound A6, ethyl 5-[3-(trifluoromethyl)phenyl]-1H-pyrazole-3-carboxylate] | −1.45 | 45.4 µM
COC(=O)c1cc(-c2ccc(Br)cc2)n[nH]1 [Compound A7, methyl 5-(4-bromophenyl)-1H-pyrazole-3-carboxylate] | – | > 100 µM
COC(=O)c1cc(-c2ccccc2)n[nH]1 [Compound A8, methyl 5-phenyl-1H-pyrazole-3-carboxylate] | – | > 100 µM
COC(=O)c1cc(-c2ccc(C)cc2)[nH]n1 [Compound A9, methyl 5-(4-methylphenyl)-1H-pyrazole-3-carboxylate] | – | > 100 µM
COC(=O)c1cc(-c2ccc([N+](=O)[O-])cc2)[nH]n1 [Compound A10, methyl 5-(4-nitrophenyl)-1H-pyrazole-3-carboxylate] | – | > 100 µM
CN(C(=O)COC(=O)c1cc(-c2ccc(Br)cc2)[nH]n1)C1CCCCC1 [Compound A11, 2-[cyclohexyl(methyl)amino]-2-oxoethyl 5-(4-bromophenyl)-1H-pyrazole-3-carboxylate] | – | > 100 µM
CC(C)(C)C(=O)COC(=O)c1cc(-c2ccc(Br)cc2)[nH]n1 [Compound A12, 3,3-dimethyl-2-oxobutyl 5-(4-bromophenyl)-1H-pyrazole-3-carboxylate] | −1.09 | 42.8 µM
CC(OC(=O)c1cc(-c2ccc(Br)cc2)[nH]n1)C(=O)NC(C)(C)C (stereo not drawn) [Compound A13, 1-(tert-butylamino)-l-oxopropan-2-yl 5-(4-bromophenyl)-1H-pyrazole-3-carboxylate] | −1 | 93.4 µM
CCCCOc1ccc(-c2cc(C(=O)OC)[nH]n2)cc1 [Compound B15, methyl 3-(4-butoxyphenyl)-1H-pyrazole-5-carboxylate] | – | > 100 µM

Further lines, results first:

n (Hill coefficient) | IC50 | SMILES
1.1 | 79.2 µM | O=C(O)c1cc(-c2ccc(O)cc2)n[nH]1 [Compound B1, 3-(4-hydroxyphenyl)-1H-pyrazole-5-carboxylic acid]
−1.92 | 7.85 µM | O=C(O)c1cc(-c2ccccc2O)n[nH]1 [Compound B2, 3-(2-hydroxyphenyl)-1H-pyrazole-5-carboxylic acid]
−4.38 | 98.3 µM | CC(C)c1ccc(-c2cc(C(=O)O)[nH]n2)cc1 [Compound B3, 3-(4-isopropylphenyl)-1H-pyrazole-5-carboxylic acid]
– | > 100 µM | O=C(O)c1cc(-c2ccc(F)cc2)n[nH]1 [Compound B4, 3-(4-fluorophenyl)-1H-pyrazole-5-carboxylic acid]
– | > 100 µM | COc1cccc(-c2cc(C(=O)O)[nH]n2)c1 [Compound B5, 3-(3-methoxyphenyl)-1H-pyrazole-5-carboxylic acid]
– | > 100 µM | CCc1ccc(-c2cc(C(=O)O)[nH]n2)cc1 [Compound B6, 3-(4-ethylphenyl)-1H-pyrazole-5-carboxylic acid]
– | > 100 µM | Cc1ccc(-c2cc(C(=O)O)[nH]n2)c(C)c1 [Compound B7, 3-(2,4-dimethylphenyl)-1H-pyrazole-5-carboxylic acid]
– | > 100 µM | Cc1ccc(-c2cc(C(=O)O)[nH]n2)cc1C [Compound B8, 3-(3,4-dimethylphenyl)-1H-pyrazole-5-carboxylic acid]
– | > 100 µM | CCOc1ccc(-c2cc(C(=O)O)[nH]n2)cc1 [Compound B9, 3-(4-ethoxyphenyl)-1H-pyrazole-5-carboxylic acid]
– | > 100 µM | O=C(O)c1cc(-c2ccc3c(c2)OCCO3)n[nH]1 [Compound B11, 3-(2,3-dihydrobenzo[b][1,4]dioxyin-6-yl)-1H-pyrazole-5-carboxylic acid]
−1.3 | 9.32 µM | COC(=O)c1cc(-c2ccc(Cl)cc2Cl)n[nH]1 [Compound B12, methyl 3-(2,4-dichlorophenyl)-1H-pyrazole-5-carboxylate]
−3.035 | 66.1 µM | COC(=O)c1cc(-c2ccc(C)cc2C)n[nH]1 [Compound B13, methyl 3-(2,4-dimethylphenyl)-1H-pyrazole-5-carboxylate]
– | > 100 µM | COC(=O)c1cc(-c2ccc(OC)cc2)[nH]n1 [Compound B14, methyl 3-(4-methoxyphenyl)-1H-pyrazole-5-carboxylate]
– | > 100 µM | CCOC(=O)c1cc(-c2ccc3c(c2)OCCO3)n[nH]1 [Compound B16, ethyl 3-(2,3-dihydrobenzo[b][1,4]dioxyin-6-yl)-1H-pyrazole-5-carboxylate]
– | > 100 µM | CCOC(=O)c1cc(-c2ccc(Cl)cc2)n[nH]1 [Compound B17, ethyl 3-(4-chlorophenyl)-1H-pyrazole-5-carboxylate]
– | > 100 µM | COC(=O)c1cc(-c2ccc3ccccc3c2)[nH]n1 [Compound C1, methyl 3-(nahthylen-2-yl)-1H-pyrazole-5-carboxylate]
– | > 100 µM | Cn1nc(-c2ccc(F)cc2)cc1C(=O)O [Compound D1, 3-(4-fluorophenyl)-1-methyl 1H-pyrazole-5 carboxylic acid]
– | > 100 µM | Cn1nc(C(=O)O)cc1-c1ccc(F)cc1 [Compound D2, 5-(4-fluorophenyl)-1-methyl 1H-pyrazole-3 carboxylic acid]
– | > 100 µM | Cc1c(-c2ccccc2)n[nH]c1C(=O)O [Compound D3, 4-methyl-5-phenyl-1H-pyrazole-3-carboxylic acid]
0.533 | 13.9 µM | O=C(O)c1[nH]nc2c1COc1ccccc1-2 [Compound E1, 2,4-dihydrochromeno[3,4-c]pyrazole-3-carboxylic acid]
– | > 100 µM | O=C(c1[nH]nc2c1COc1ccccc1-2)N1CCCC1 [Compound E2, (2,4-dihydrochromeno[3,4-c]pyrazol-3-yl)(pyrrolidin-1-yl)methanone]
– | > 100 µM | CCOC(=O)c1[nH]nc2c1COc1ccccc1-2 [Compound E3, ethyl 2,4-dihydrochromeno[3,4-c]pyrazole-3-carboxylate]
−1.49 | 23.7 µM | COc1ccc(-c2n[nH]c3oc(=O)cc(C)c23)cc1 [Compound E4, 3-(4-methoxyphenyl)-4-methylpyrano[2,3-c]pyrazol-6(1H)-one]
−1.89 | 21.1 µM | COc1ccc(-c2nnc3oc(O)cc(C)c2-3)cc1 [Compound E5, 3-(4-methoxyphenyl)-4-methylpyrano[2,3-c]prazol-6-ol]
−5 | 62.7 µM | Cc1cc(O)oc2nnc(-c3ccccc3)c1-2 [Compound E6, 4-methyl-3-phenylpyrano[2,3-c]pyrazol-6-ol]
